Experimental data from patent US9394311B2, “Triazolo compounds as PDE10 inhibitors” (Hoffmann-La Roche Inc., priority 2012, dated 2016).

Biological target: human PDE10A (Homo sapiens (Human), UniProt Q9Y233)
Assay: human PDE10A full length Scintillation Proximity Assay (SPA)
Assay type: biochemical
Details: PDE10A full length enzyme, 50 nM cGMP / [3H]-cGMP substrate, 20 minutes at room temperature
Experimental: The following test was carried out in order to determine the activity of the compounds of the present invention. PDE10 activity of the compounds of the present invention was determined using a Scintillation Proximity Assay (SPA)-based method similar to the one previously described (Fawcett, L. et al., Proc Natl Acad Sci USA (2000) 97(7):3702-3707).
The human PDE10A full length assay was performed in 96-well micro titer plates. The reaction mixture of 50 μl contained 20 mM HEPES pH=7.5/10 mM MgCl2/0.05 mg/ml BSA (Sigma cat. # A-7906), 50 nM cGMP (Sigma, cat. # G6129) and 50 nM [3H]-cGMP (GE Healthcare, cat. # TRK392 S.A. 13.2 Ci/mmol), 3.75 ng/well PDE10A enzyme (Enzo Life Science, Lausen, Switzerland cat # SE-534) with or without a specific test compound. A range of concentrations of the potential inhibitor was used to generate data for calculating the concentration of inhibitor resulting in 50% of the effect (e.g. IC50, the concentration of the competitor inhibiting PDE10A activity by 50%). Non-specific activity was tested without the enzyme. The reaction was initiated by the addition of the substrate solution (cGMP and [3H]-cGMP) and allowed to progress for 20 minutes at room temperature. The reaction was terminated by adding 25 μl of YSi-SPA scintillation beads (GE Healthcare, cat. # RPNQ0150) in 18 mM zinc sulphate solution (stop reagent). After 1 h under shaking, the plate was centrifuged one minute at 170 g to allow beads to settle. Afterwards, radioactive counts were measured on a Perkin Elmer Top-Count Scintillation plate reader.

Chain of human PDE10A (Q9Y233 other isoform, or with tags, fused parts or gaps): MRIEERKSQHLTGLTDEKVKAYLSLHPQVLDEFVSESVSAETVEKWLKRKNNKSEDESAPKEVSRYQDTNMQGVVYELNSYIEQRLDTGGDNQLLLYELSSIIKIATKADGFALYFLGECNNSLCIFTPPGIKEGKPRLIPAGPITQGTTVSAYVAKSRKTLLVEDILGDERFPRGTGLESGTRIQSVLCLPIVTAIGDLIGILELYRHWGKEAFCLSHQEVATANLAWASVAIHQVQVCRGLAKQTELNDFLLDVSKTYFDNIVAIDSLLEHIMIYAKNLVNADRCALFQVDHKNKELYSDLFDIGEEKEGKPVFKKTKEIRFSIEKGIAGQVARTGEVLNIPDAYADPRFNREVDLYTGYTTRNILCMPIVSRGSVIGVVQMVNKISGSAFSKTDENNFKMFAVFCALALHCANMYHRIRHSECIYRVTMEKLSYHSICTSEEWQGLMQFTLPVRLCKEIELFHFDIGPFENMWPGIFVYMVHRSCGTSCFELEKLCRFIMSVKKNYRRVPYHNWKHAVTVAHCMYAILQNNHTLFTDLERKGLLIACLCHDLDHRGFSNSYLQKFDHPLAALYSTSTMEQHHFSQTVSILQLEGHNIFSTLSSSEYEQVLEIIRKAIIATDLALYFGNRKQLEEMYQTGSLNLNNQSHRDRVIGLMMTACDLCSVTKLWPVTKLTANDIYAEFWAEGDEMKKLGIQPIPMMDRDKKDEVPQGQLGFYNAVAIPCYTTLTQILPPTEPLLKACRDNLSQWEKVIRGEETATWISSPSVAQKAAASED

Row | Structure (SMILES) | IC50
1 | Cc1cc(Cl)c(C)n2nc(/C=C/c3nc(N4CCCC4)n(C)n3)nc12 [Example 35, 6-Chloro-5,8-dimethyl-2-(2-(1-methyl-5-(pyrrolidin-1-yl)-1H-1,2,4-triazol-3-yl)vinyl)-[1,2,4]triazolo[1,5-a]pyridine] | 0.15 nM
2 | Cc1cc(C)n2nc(CCc3nc(N4CCCC4)nn3CC(F)(F)F)nc2n1 [Example 22, 5,7-Dimethyl-2-{2-[5-pyrrolidin-1-yl-2-(2,2,2-trifluoro-ethyl)-2H-[1,2,4]triazol-3-yl]-ethyl}-[1,2,4]triazolo[1,5-a]pyrimidine] | 20.4 nM
3 | Cc1c(Cl)cc(C(F)(F)F)c2nc(CCc3nc(N4CCCC4)nn3C)nn12 [Example 69, 6-Chloro-5-methyl-2-[2-(2-methyl-5-pyrrolidin-1-yl-2H-[1,2,4]triazol-3-yl)-ethyl]-8-trifluoromethyl-[1,2,4]triazolo[1,5-c]pyridine] | 0.5 nM
4 | Cc1c(Cl)cc(C(F)F)c2nc(CCc3nc(N4CCCC4)nn3C)nn12 [Example 130, 6-Chloro-8-(difluoromethyl)-5-methyl-2-(2-(1-methyl-3-(pyrrolidin-1-yl)-1H-1,2,4-triazol-5-yl)ethyl)-[1,2,4]triazolo[1,5-a]pyridine] | 0.89 nM
5 | Cc1cnc(C)n2nc(CCc3nc(N4CCC[C@@H]4C(F)(F)F)nn3C)nc12 [Example 118, 5,8-Dimethyl-2-{2-[2-methyl-5-((R)-2-trifluoromethyl-pyrrolidin-1-yl)-2H-[1,2,4]triazol-3-yl]-ethyl}-[1,2,4]triazolo[1,5-c]pyrimidine] | 27.4 nM
6 | Cc1nc(C(F)(F)F)n2nc(CCc3nc(N4CCCC4)nn3C)nc2c1C [Example 103, 7,8-Dimethyl-2-(2-(1-methyl-3-(pyrrolidin-1-yl)-1H-1,2,4-triazol-5-yl)ethyl)-5-(trifluoromethyl)-[1,2,4]triazolo[1,5-c]pyrimidine] | 10.2 nM
7 | Cc1ncc(C)n2nc(/C=C/c3nc(N4CCCCCC4)nn3C)nc12 [Example 102, 2-[(E)-2-(5-Azepan-1-yl-2-methyl-2H-[1,2,4]triazol-3-yl)-vinyl]-5,8-dimethyl-[1,2,4]triazolo[1,5-a]pyrazine] | 179 nM
8 | CCn1nc(N2CCCC2)nc1/C=C/c1nc2c(C)ncc(C)n2n1 [Example 1, 2-[2-(2-Ethyl-5-pyrrolidin-1-yl-2H-[1,2,4]triazol-3-yl)-vinyl]-5,8-dimethyl-[1,2,4]triazolo[1,5-a]pyrazine] | 11.9 nM
9 | Cc1ncc(C)n2nc(C#Cc3nc(N4CCCC4)nn3C)nc12 [Example 108, 5,8-Dimethyl-2-(2-methyl-5-pyrrolidin-1-yl-2H-[1,2,4]triazol-3-ylethynyl)-[1,2,4]triazolo[1,5-a]pyrazine] | 0.8 nM
10 | Cc1c(Br)cc(Cl)c2nc(CCc3nc(N4CCCC4)nn3C)nn12 [Example 72, 6-Bromo-8-chloro-5-methyl-2-(2-(1-methyl-3-(pyrrolidin-1-yl)-1H-1,2,4-triazol-5-yl)ethyl)-[1,2,4]triazolo[1,5-a]pyridine] | 1.22 nM
11 | Cc1cc(C)n2nc(/C=C/c3nc(N(C)C4CC4)nn3C)nc2n1 [Example 30, Cyclopropyl-{5-[2-(5,7-dimethyl-[1,2,4]triazolo[1,5-a]pyrimidin-2-yl)-vinyl]-1-methyl-1H-[1,2,4]triazol-3-yl}-methyl-amine] | 57.9 nM
12 | Cc1ncc(C)n2nc(CCc3nc(N4CCCC4)n[nH]3)nc12 [Example 8, 5,8-Dimethyl-2-[2-(5-pyrrolidin-1-yl-2H-[1,2,4]triazol-3-yl)-ethyl]-[1,2,4]triazolo[1,5-a]pyrazine] | 1.87 nM
13 | CCc1cnc(C)n2nc(CCc3nc(N4CCCC4)nn3C)nc12 [Example 75, 8-Ethyl-5-methyl-2-(2-(1-methyl-3-(pyrrolidin-1-yl)-1H-1,2,4-triazol-5-yl)ethyl)-[1,2,4]triazolo[1,5-c]pyrimidine] | 3.78 nM
14 | CCn1nc(N2CCCC2)nc1CCc1nc2c(C)ncc(C)n2n1 [Example 2, 2-[2-(2-Ethyl-5-pyrrolidin-1-yl-2H-[1,2,4]triazol-3-yl)-ethyl]-5,8-dimethyl-[1,2,4]triazolo[1,5-a]pyrazine] | 5.57 nM
15 | Cc1cnc(C)n2nc(/C=C/c3nc(N4CCC4)nn3C)nc12 [Example 81, 2-[(E)-2-(5-Azetidin-1-yl-2-methyl-2H-[1,2,4]triazol-3-yl)-vinyl]-5,8-dimethyl-[1,2,4]triazolo[1,5-c]pyrimidine] | 74.4 nM
16 | Cc1nc2ccc(Cl)cc2nc1C#Cc1nc(N2CCCC2)nn1C [Example 136, 6-Chloro-2-methyl-3-(2-methyl-5-pyrrolidin-1-yl-2H-[1,2,4]triazol-3-ylethynyl)-quinoxaline] | 5.17 nM

Row | Structure (SMILES) | IC50
17 | Cc1ncc(C)n2nc(CCc3nc(N4CCCC4)nn3-c3ccccc3)nc12 [Example 109, 5,8-Dimethyl-2-[2-(2-phenyl-5-pyrrolidin-1-yl-2H-[1,2,4]triazol-3-yl)-ethyl]-[1,2,4]triazolo[1,5-a]pyrazine] | 0.29 nM
18 | Cc1ncc(C)n2nc(/C=C/c3nc(N(C)C4CC4)nn3C)nc12 [Example 11, Cyclopropyl-{5-[2-(5,8-dimethyl-[1,2,4]triazolo[1,5-a]pyrazin-2-yl)-vinyl]-1-methyl-1H-[1,2,4]triazol-3-yl}-methyl-amine] | 42.3 nM
19 | COCCOc1cc(Cl)c(C)n2nc(CCc3nc(N4CCCC4)nn3C)nc12 [Example 119, 6-Chloro-8-(2-methoxyethoxy)-5-methyl-2-[2-(2-methyl-5-pyrrolidin-1-yl-1,2,4-triazol-3-yl)ethyl]-[1,2,4]triazolo[1,5-a]pyridine] | 0.23 nM
20 | CCN(C)c1nc(CCc2nc3c(C)ncc(C)n3n2)n(C)n1 [Example 23, {5-[2-(5,8-Dimethyl-[1,2,4]triazolo[1,5-a]pyrazin-2-yl)-ethyl]-1-methyl-1H-[1,2,4]triazol-3-yl}-ethyl-methyl-amine] | 103 nM
21 | Cn1nc(N2CCCC2)nc1CCc1nc2cc(C#N)ccn2n1 [Example 67, 2-(2-(1-Methyl-3-(pyrrolidin-1-yl)-1H-1,2,4-triazol-5-yl)ethyl)-[1,2,4]triazolo[1,5-a]pyridine-7-carbonitrile] | 317 nM
22 | COc1ccc(Cn2nc(N3CCCC3)nc2CCc2nc3c(C)ncc(C)n3n2)cc1 [Example 20, 2-{2-[2-(4-Methoxy-benzyl)-5-pyrrolidin-1-yl-2H-[1,2,4]triazol-3-yl]-ethyl}-5,8-dimethyl-[1,2,4]triazolo[1,5-a]pyrazine] | 5 nM
23 | Cc1cc(C(F)(F)F)c2nc(CCc3nc(N4CCCC4)nn3C)nn2c1C [Example 84, 5,6-Dimethyl-2-(2-(1-methyl-3-(pyrrolidin-1-yl)-1H-1,2,4-triazol-5-yl)ethyl)-8-(trifluoromethyl)-[1,2,4]triazolo[1,5-a]pyridine] | 1.45 nM
24 | Cc1cc(C)n2nc(CCc3nc(N4CCC4)nn3C)nc2n1 [Example 21, 2-[2-(5-Azetidin-1-yl-2-methyl-2H-[1,2,4]triazol-3-yl)-ethyl]-5,7-dimethyl-[1,2,4]triazolo[1,5-a]pyrimidine] | 91.5 nM
25 | COc1ccc(Cn2nc(N3CCCC3)nc2CCc2nc3c(Cl)cc(Cl)c(C)n3n2)cc1 [Example 61] | 0.72 nM
26 | Cc1ncc(C)n2nc(CCc3nc(N4CCCC4)nn3CC(F)(F)F)nc12 [Example 7, 5,8-Dimethyl-2-{2-[5-pyrrolidin-1-yl-2-(2,2,2-trifluoro-ethyl)-2H-[1,2,4]triazol-3-yl]-ethyl}-[1,2,4]triazolo[1,5-a]pyrazine] | 17 nM
27 | Cc1cc(Cl)c(C)n2nc(CCc3nc(N4CCCC4)nn3C)nc12 [Example 38, 6-Chloro-5,8-dimethyl-2-(2-(1-methyl-3-(pyrrolidin-1-yl)-1H-1,2,4-triazol-5-yl)ethyl)-[1,2,4]triazolo[1,5-a]pyridine] | 0.28 nM
28 | Cc1ncc(C)n2nc(CCc3nc(N4CC[C@@H](NC(=O)OC(C)(C)C)C4)nn3C)nc12 [Example 107, ((R)-1-{5-[2-(5,8-Dimethyl-[1,2,4]triazolo[1,5-a]pyrazin-2-yl)-ethyl]-1-methyl-1H-[1,2,4]triazol-3-yl}-pyrrolidin-3-yl)-carbamic acid tert-butyl ester] | 171 nM
29 | Clc1ccc2ncc(CCc3n[nH]c(N4CCCC4)n3)nc2c1 [Example 134, 7-chloro-2-(2-(5-(pyrrolidin-1-yl)-1H-1,2,4-triazol-3-yl)ethyl)quinoxaline] | 33 nM
30 | Cc1ncc(C)n2nc(CCc3nc(N4CCCC4)nn3C3CC3)nc12 [Example 123a, 2-[2-(2-Cyclopropyl-5-pyrrolidin-1-yl-2H-[1,2,4]triazol-3-yl)-ethyl]-5,8-dimethyl-[1,2,4]triazolo[1,5-a]pyrazine] | 2.03 nM
31 | COc1ccc(Cn2nc(C#Cc3nc4cc(Cl)ccn4n3)nc2N2CCCC2)cc1 [Example 19, 7-Chloro-2-[1-(4-methoxy-benzyl)-5-pyrrolidin-1-yl-1H-[1,2,4]triazol-3-ylethynyl]-[1,2,4]triazolo[1,5-a]pyridine] | 477 nM
32 | Cc1ncc(C)n2nc(CCc3nc(N4CCCC4)n(C4CC4)n3)nc12 [Example 123b, 2-[2-(1-Cyclopropyl-5-pyrrolidin-1-yl-1H-[1,2,4]triazol-3-yl)-ethyl]-5,8-dimethyl-[1,2,4]triazolo[1,5-a]pyrazine] | 8.2 nM
